The values below come from ChEMBL document CHEMBL1147473, “Synthesis of a bioprobe for elucidation of target molecule of spongean anti-malarial peroxides” (Bioorg Med Chem Lett, 2004).

The test system of the assay is Plasmodium falciparum. The experiment in a line: Inhibitory concentration against Plasmodium falciparum. The class given is functional, organism-based.

In the case of `COC(=O)CC1CCC(CCCCCOC(=O)NCCCC[C@@H]2CCC3NC(=O)NC32)(OC)OO1` (some centres not stated), the IC50 was found to be 910 nM. In the case of `COC(=O)CC1CCC(CCCCCOC(=O)NCCCCNC(=O)OCCOCCOC(=O)NCCCC[C@@H]2CCC3NC(=O)NC32)(OC)OO1` (some centres not stated), the IC50 came to 570 nM.

In general, IC50 refers to the midpoint of a concentration-inhibition curve.
